Results as given in patent US20100203531A1, “PREDICTING RESPONSIVENESS TO TEMOZOLOMIDE” (priority 2007, published 2010).

What was measured:
Assay type in all cases: in vivo, human
GBM8 xenograft = test: Orthotopic intracranial xenograft survival, GBM8
Description: (§1) In vivo sensitivity of GBM lines to TMZ: To address whether MGMT methylation or polypeptide expression status are predictive of TMZ responsiveness, the effects of TMZ therapy on survival were evaluated in the panel of xenografts using an orthotopic therapy model. Mice with established intracranial xenografts were treated with 66 mg/kg TMZ or placebo daily for 5 days by oral gavage. This TMZ dosing regimen provides the equivalent dose-exposure to TMZ as the standard adjuvant TMZ dosing regimen for GBM patients of 200 mg/m^2×5 days. All mice were followed until reaching a moribund state, and the relative prolongation of survival following TMZ treatment was calculated for each line relative to placebo treatment (Table 1). […] Further analysis of the relationship between TMZ responsiveness and MGMT methylation status in 17 xenograft lines was conducted by comparing the distribution of median survival prolongation results for methylation-positive and methylation-negative groups of xenografts. From this analysis, MGMT methylation was modestly associated with increased TMZ sensitivity (FIG. 2, p=0.039, two-sample rank sum test). In a similar analysis of MGMT polypeptide expression levels, high levels of MGMT polypeptide expression were invariably associated with relative TMZ resistance, and the absence of MGMT polypeptide expression was associated with significant TMZ sensitivity (r=−0.73, p=0.005). […] While p53, PTEN and EGFR function have been linked to TMZ sensitivity in some models, no correlation between genetic alterations of these genes and TMZ responsiveness was observed.
(§2) Orthotopic model: Therapy evaluations were conducted using an orthotopic tumor model as described elsewhere (Sarkaria et al., Clin Cancer Res, 12:2264-2271 (2006), Giannini et al., Neuro-Oncology, 7:164-176, (2005)). Athymic nude mice (NCI, Frederick, Md.) with established intracranial tumors were randomized into groups of 8 to 10 mice each and treatment was initiated 2 weeks before mice were expected to become moribund. TMZ was purchased from the Mayo Clinic Pharmacy, suspended in Ora-plus (Paddock Laboratories, Minneapolis. MN), and administered by oral gavage at 66 mg/kg for 5 days. Mice were observed daily and euthanized when moribund.
(§3) Statistical analysis: Survival distributions were estimated using the Kaplan-Meier method. The log rank test was used to compare survival across treatment groups. All GBM experiments were pooled and Classification and Regression Tree analysis (CART) was used to identify which CpG sites in the MS-PCR assay (CpG sites 78-82, 86-89) were predictive of overall survival in TMZ treated mice. The two-sample rank sum test was used to compare relative differences in survival relative to MGMT MS-PCR status or CpG89 methylation status. […]

GBM34 xenograft = test: Orthotopic intracranial xenograft survival, GBM34
Description: as §1, §2, §3

GBM22 / GS22 xenograft = test: Orthotopic intracranial xenograft survival, GBM22 (GS22)
Description: as §1, §2, §3

GBM16 xenograft = test: Orthotopic intracranial xenograft survival, GBM16; settings: for Survival Prolongation: median survival relative to placebo, 66 mg/kg oral for 5 days (Table 3), 66 mg/kg
Description: as §1, §2
(§4) Statistical analysis: Survival distributions were estimated using the Kaplan-Meier method. The log rank test was used to compare survival across treatment groups. All GBM experiments were pooled and Classification and Regression Tree analysis (CART) was used to identify which CpG sites in the MS-PCR assay (CpG sites 78-82, 86-89) were predictive of overall survival in TMZ treated mice. The two-sample rank sum test was used to compare relative differences in survival relative to MGMT MS-PCR status or CpG89 methylation status. Spearman's correlation coefficient was used to assess the association of relative median survival and protein expression levels of MGMT relative to 13-actin.

GBM43 xenograft = test: Orthotopic intracranial xenograft survival, GBM43
Description: as §1
(§5) Orthotopic model: Therapy evaluations were conducted using an orthotopic tumor model as described elsewhere (Sarkaria et al., Clin Cancer Res, 12:2264-2271 (2006), Giannini et al., Neuro-Oncology, 7:164-176, (2005)). Athymic nude mice (NCI, Frederick, Md.) with established intracranial tumors were randomized into groups of 8 to 10 mice each and treatment was initiated 2 weeks before mice were expected to become moribund. TMZ was purchased from the Mayo Clinic Pharmacy, suspended in Ora-plus (Paddock Laboratories, Minneapolis. […] Mice were observed daily and euthanized when moribund.
as §4

GBM28 / GS28 xenograft = test: Orthotopic intracranial xenograft survival, GBM28 (GS28)
Description: as §1, §2, §3

GBM46 xenograft = test: Orthotopic intracranial xenograft survival, GBM46
Description: In vivo sensitivity of GBM lines to TMZ: To address whether MGMT methylation or polypeptide expression status are predictive of TMZ responsiveness, the effects of TMZ therapy on survival were evaluated in the panel of xenografts using an orthotopic therapy model. Mice with established intracranial xenografts were treated with 66 mg/kg TMZ or placebo daily for 5 days by oral gavage. This TMZ dosing regimen provides the equivalent dose-exposure to TMZ as the standard adjuvant TMZ dosing regimen for GBM patients of 200 mg/m^2×5 days. All mice were followed until reaching a moribund state, and the relative prolongation of survival following TMZ treatment was calculated for each line relative to placebo treatment (Table 1). […] Further analysis of the relationship between TMZ responsiveness and MGMT methylation status in 17 xenograft lines was conducted by comparing the distribution of median survival prolongation results for methylation-positive and methylation-negative groups of xenografts. From this analysis, MGMT methylation was modestly associated with increased TMZ sensitivity (FIG. 2, p=0.039, two-sample rank sum test). […]

GBM6 xenograft = test: Orthotopic intracranial xenograft survival, GBM6
Description: as §1, with “Mice with established intracranial xenografts were treated with 66 mg/kg TMZ or placebo daily for 5 days by oral gavage.” left out
as §5, §4

## Cn1nnc2c(C(N)=O)ncn2c1=O [TMZ, Temozolomide]
GBM8 xenograft; GBM8, median survival relative to placebo, 66 mg/kg oral for 5 days (Table 3)
  Survival Prolongation: 110%
GBM8 xenograft; GBM8, prolongation of median survival relative to placebo, TMZ 66 mg/kg oral x5 days
  Survival benefit: 110%
GBM8 xenograft; GBM8 intracranial xenograft, nude mice, TMZ 66 mg/kg oral daily x5 days
  TMZ median survival: 124
GBM8 xenograft; GBM8 intracranial, athymic nude mice, 66 mg/kg oral gavage for 5 days (Table 3)
  Temozolomide median survival: 124
GBM34 xenograft; GBM34, median survival relative to placebo, 66 mg/kg oral for 5 days (Table 3)
  Survival Prolongation: 294%
GBM34 xenograft; GBM34, prolongation of median survival relative to placebo, TMZ 66 mg/kg oral x5 days
  Survival benefit: 294%
GBM34 xenograft; GBM34 intracranial xenograft, nude mice, TMZ 66 mg/kg oral daily x5 days
  TMZ median survival: 351
GBM34 xenograft; GBM34 intracranial, athymic nude mice, 66 mg/kg oral gavage for 5 days (Table 3)
  Temozolomide median survival: 351
GBM22 / GS22 xenograft; GBM22, prolongation of median survival relative to placebo, TMZ 66 mg/kg oral x5 days
  Survival benefit: 260%
GBM22 / GS22 xenograft; GBM22 intracranial xenograft, nude mice, TMZ 66 mg/kg oral daily x5 days
  TMZ median survival: 124
GBM22 / GS22 xenograft; GS22, median survival relative to placebo, 66 mg/kg oral for 5 days (Table 3)
  Survival Prolongation: 260%
GBM22 / GS22 xenograft; GS22 intracranial, athymic nude mice, 66 mg/kg oral gavage for 5 days (Table 3)
  Temozolomide median survival: 155
GBM16 xenograft; GBM16
  Survival Prolongation: 579%
GBM16 xenograft; GBM16, listed as Temozolomide
  Survival Prolongation: 579%
GBM16 xenograft; GBM16, prolongation of median survival relative to placebo, TMZ 66 mg/kg oral x5 days
  Survival benefit: 579%
GBM16 xenograft; GBM16 intracranial xenograft, nude mice, TMZ 66 mg/kg oral daily x5 days
  TMZ median survival: 300
GBM16 xenograft; GBM16 intracranial, athymic nude mice, 66 mg/kg oral gavage for 5 days (Table 3)
  Temozolomide median survival: 326
GBM43 xenograft; GBM43, median survival relative to placebo, 66 mg/kg oral for 5 days (Table 3)
  Survival Prolongation: 87%
GBM43 xenograft; GBM43, prolongation of median survival relative to placebo, TMZ 66 mg/kg oral x5 days
  Survival benefit: 87%
GBM43 xenograft; GBM43 generation 6, TMZ 120 mg/kg for 5 days, intracranial
  Survival benefit: 104%
GBM43 xenograft; GBM43 generation 10, TMZ 66 mg/kg for 5 days, intracranial
  Survival benefit: 83%
GBM43 xenograft; GBM43 intracranial xenograft, nude mice, TMZ 66 mg/kg oral daily x5 days
  TMZ median survival: 43
GBM43 xenograft; GBM43 intracranial, athymic nude mice, 66 mg/kg oral gavage for 5 days (Table 3)
  Temozolomide median survival: 43
GBM28 / GS28 xenograft; GBM28, prolongation of median survival relative to placebo, TMZ 66 mg/kg oral x5 days
  Survival benefit: 70%
GBM28 / GS28 xenograft; GBM28 intracranial xenograft, nude mice, TMZ 66 mg/kg oral daily x5 days
  TMZ median survival: 56
GBM28 / GS28 xenograft; GS28, median survival relative to placebo, 66 mg/kg oral for 5 days (Table 3)
  Survival Prolongation: 70%
GBM28 / GS28 xenograft; GS28 intracranial, athymic nude mice, 66 mg/kg oral gavage for 5 days (Table 3)
  Temozolomide median survival: 56
GBM46 xenograft; GBM46, prolongation of median survival relative to placebo, TMZ 66 mg/kg oral x5 days
  Survival benefit: 0%
GBM46 xenograft; GBM46 intracranial xenograft, nude mice, TMZ 66 mg/kg oral daily x5 days
  TMZ median survival: 50
GBM6 xenograft; GBM6, median survival relative to placebo, 66 mg/kg oral for 5 days (Table 3)
  Survival Prolongation: 37%
GBM6 xenograft; GBM6, prolongation of median survival relative to placebo, TMZ 66 mg/kg oral x5 days
  Survival benefit: 37%
GBM6 xenograft; GBM6 generation 20, TMZ 120 mg/kg for 5 days, intracranial
  Survival benefit: 67%
GBM6 xenograft; GBM6 generation 24, TMZ 66 mg/kg for 5 days, intracranial
  Survival benefit: 21%
GBM6 xenograft; GBM6 intracranial xenograft, nude mice, TMZ 66 mg/kg oral daily x5 days
  TMZ median survival: 56
GBM6 xenograft; GBM6 intracranial, athymic nude mice, 66 mg/kg oral gavage for 5 days (Table 3)
  Temozolomide median survival: 56
